The values that follow are results of earlier work, collected in PMC6838683, “Discovery of Human Signaling Systems: Pairing Peptides to G Protein-Coupled Receptors” (Cell, 2019).

Read-outs that look alike come from different tables or passages of the source. Residues, ends and D or L forms follow the SMILES beside them. No end group written: not given here.

The series addresses human GPCRs. Also on record: method as in Guide to Pharmacology database. As to conditions: max reported value, ref Guide to Pharmacology database, cited from earlier work. An excerpt: Supplement mmc1.xlsx, sheet "HumanGPCRLigands" | column: pKi_value; pKd_value; pEC50_value; pIC50_value
[1] abbreviates: receptor TACR1 (nk1r_human, P25103).
The mark [2] stands for this setting: receptor TACR2 (nk2r_human, P21452).
Setting [3] is: receptor TACR3 (nk3r_human, P29371).
Setting [4] is: receptor taar1_human (TAAR1, Q96RJ0).
Setting [5] is: receptor AVPR1A (v1ar_human, P37288).
The mark [6] stands for this setting: receptor AVPR1B (v1br_human, P47901).
[7] abbreviates: receptor AVPR2 (v2r_human, P30518).
[8] abbreviates: receptor OXTR (oxyr_human, P30559).
Setting [9] is: receptor S1PR1 (s1pr1_human, P21453).
[10] abbreviates: receptor S1PR2 (s1pr2_human, O95136).
Setting [11] is: receptor S1PR3 (s1pr3_human, Q99500).
Setting [12] is: receptor S1PR4 (s1pr4_human, O95977).
Where [13] appears, read: receptor gasr_human (CCKBR, P32239).

As for `CC[C@H](C)[C@H](NC(=O)[C@@H]1CCCN1C(=O)[C@@H](NC(=O)[C@@H](N)Cc1ccccc1)C(C)C)C(=O)N[C@@H](Cc1ccccc1)C(=O)N[C@H](C(=O)N[C@@H](Cc1ccc(O)cc1)C(=O)NCC(=O)N[C@@H](CCC(=O)O)C(=O)N[C@@H](CC(C)C)C(=O)N[C@@H](CCC(N)=O)C(=O)N[C@@H](CCCNC(=N)N)C(=O)N[C@@H](CCSC)C(=O)N[C@@H](CCC(N)=O)C(=O)N[C@@H](CCC(=O)O)C(=O)N[C@@H](CCCCN)C(=O)N[C@@H](CCC(=O)O)C(=O)N[C@@H](CCCNC(=N)N)C(=O)N[C@@H](CC(N)=O)C(=O)N[C@@H](CCCCN)C(=O)NCC(=O)N[C@@H](CCC(N)=O)C(=O)O)[C@@H](C)O` [motilin], the pKi_value (receptor mtlr_human (MLNR, O43193)) is listed as 8.7.
As for `CSCC[C@H](NC(=O)[C@H](CC(C)C)NC(=O)CNC(=O)[C@@H](NC(=O)[C@H](Cc1ccccc1)NC(=O)[C@H](CO)NC(=O)[C@H](CC(=O)O)NC(=O)[C@@H](NC(=O)[C@H](CCCCN)NC(=O)[C@@H](N)Cc1cnc[nH]1)[C@@H](C)O)C(C)C)C(N)=O` [neurokinin A], the pKi_value is 9.3 under setting [1], 9.1 under setting [2] and 6.3 under setting [3]. Also, the pEC50_value under setting [3] is 7.4.
In the case of `CSCC[C@H](NC(=O)[C@H](CC(C)C)NC(=O)CNC(=O)[C@@H](NC(=O)[C@H](Cc1ccccc1)NC(=O)[C@H](Cc1ccccc1)NC(=O)[C@H](CC(=O)O)NC(=O)[C@H](Cc1cnc[nH]1)NC(=O)[C@H](CCSC)NC(=O)[C@@H](N)CC(=O)O)C(C)C)C(N)=O` [neurokinin B], the pKi_value is, setting by setting: under setting [1], 6.4; under setting [2], 7.7; under setting [3], 9.2. In addition, the pEC50_value under setting [3] is 8.4.
For the compound `CSCC[C@H](NC(=O)CNC(=O)[C@@H](NC(=O)CNC(=O)[C@@H](NC(=O)CNC(=O)[C@H](CC(N)=O)NC(=O)[C@H](CCCNC(=N)N)NC(=O)[C@H](Cc1ccccc1)NC(=O)[C@@H](N)CO)C(C)C)[C@@H](C)O)C(=O)N[C@@H](CCCCN)C(=O)N[C@@H](CCCCN)C(=O)N[C@H](C(=O)N[C@@H](CO)C(=O)N[C@@H](Cc1ccccc1)C(=O)N[C@@H](CCC(N)=O)C(=O)N[C@@H](CCCNC(=N)N)C(=O)N[C@@H](C)C(=O)N[C@@H](CCCCN)C(=O)N[C@@H](CO)C(=O)O)[C@@H](C)O` [neuropeptide S] (H-SFRNGVGTGMKKTSFQRAKS-OH), the pEC50_value (receptor npsr1_human (NPSR1, Q6W5P4)) is recorded as 8.
Consider `NCC(O)c1ccc(O)cc1` (stereo not drawn) [octopamine], for which the pEC50_value under setting [4] is on record as 5.8.
As to `CC[C@H](C)[C@H](NC(=O)[C@H](CC(C)C)NC(=O)[C@@H](NC(=O)[C@@H](N)CCSC)[C@@H](C)O)C(=O)NCC(=O)N[C@@H](C)C(=O)N[C@@H](C)C(=O)N[C@@H](Cc1cnc[nH]1)C(=O)N[C@@H](CC(N)=O)C(=O)NCC(=O)N[C@@H](CO)C(=O)N[C@@H](C)C(=O)N[C@@H](CCC(N)=O)C(=O)N[C@@H](CC(C)C)C(=O)N[C@@H](CC(C)C)C(=O)N[C@@H](CCCN=C(N)N)C(=O)N[C@@H](CCC(N)=O)C(=O)N[C@@H](CC(C)C)C(=O)N[C@@H](CCCN=C(N)N)C(=O)NCC(=O)N[C@@H](CCC(N)=O)C(=O)N[C@@H](CC(C)C)C(=O)NCC(=O)N1CCC[C@H]1C(=O)N1CCC[C@H]1C(=O)NCC(=O)N[C@@H](CO)C(=O)N[C@@H](CCCN=C(N)N)C(N)=O` [orexin-B] (H-MTLIGAAHNGSAQLLRQLRGQLGPPGSR-NH2), the pEC50_value by setting is: (receptor HCRTR1 (ox1r_human, O43613)) 9.2; (receptor HCRTR2 (ox2r_human, O43614)) 10.
Consider `CC[C@H](C)[C@@H]1NC(=O)[C@H](Cc2ccc(O)cc2)NC(=O)[C@@H](N)CSSC[C@@H](C(=O)N2CCC[C@H]2C(=O)N[C@@H](CC(C)C)C(=O)NCC(N)=O)NC(=O)[C@H](CC(N)=O)NC(=O)[C@H](CCC(N)=O)NC1=O` [oxytocin], for which the pKi_value is given as 8.3 under setting [5], 7 under setting [6], 6.8 under setting [7] and 9.6 under setting [8].
As to `CCCCCCCCCCCCC/C=C/[C@@H](O)[C@@H](N)COP(=O)(O)O` [sphingosine 1-phosphate], the pEC50_value is listed as 9.4 under setting [9]; 8.5 under setting [10]; 9.8 under setting [11]; 8.1 under setting [12]; 8.9 (receptor S1PR5 (s1pr5_human, Q9H228)); 7.7 (receptor gpr3_human (GPR3), Class A orphans). In addition, the pEC50_value by setting is: (receptor gpr12_human (GPR12), Class A orphans) 7; (receptor gpr63_human (GPR63), Class A orphans) 6.2; (receptor p2y10_human (P2RY10), Class A orphans) 7.3. In addition, the pKd_value by setting is: under setting [9], 9.4; under setting [10], 7.7; under setting [11], 9.6. Besides, the pIC50_value under setting [12] is on record as 7.
Take `CSCC[C@H](NC(=O)[C@H](CC(C)C)NC(=O)CNC(=O)[C@H](Cc1ccccc1)NC(=O)[C@H](Cc1ccccc1)NC(=O)[C@H](CCC(N)=O)NC(=O)[C@H](CCC(N)=O)NC(=O)[C@@H]1CCCN1C(=O)[C@H](CCCCN)NC(=O)[C@@H]1CCCN1C(=O)[C@@H](N)CCCN=C(N)N)C(N)=O` [substance P]: the pKi_value was 10.3 under setting [1], 6.9 under setting [2] and 6 under setting [3].
With `O=C(O)CCC(=O)O` [succinic acid], for the setting “receptor sucr1_human (SUCNR1), Succinate receptors”, the pEC50_value was 4.7.
Regarding `NCCc1ccc(O)cc1` [tyramine], the pEC50_value under setting [4] is 6.7.
With `O=c1ccn([C@@H]2O[C@H](COP(=O)(O)OP(=O)(O)O)[C@@H](O)[C@H]2O)c(=O)[nH]1` [uridine diphosphate], the pEC50_value (receptor p2ry6_human (P2RY6), P2Y receptors) is listed as 6.5.
Turning to `CC(C)[C@H](NC(=O)[C@@H]1CSSC[C@H](NC(=O)[C@H](CC(=O)O)NC(=O)[C@@H]2CCCN2C(=O)[C@@H](NC(=O)[C@@H](N)CCC(=O)O)[C@@H](C)O)C(=O)N[C@@H](Cc2ccccc2)C(=O)N[C@@H](Cc2c[nH]c3ccccc23)C(=O)N[C@@H](CCCCN)C(=O)N[C@@H](Cc2ccc(O)cc2)C(=O)N1)C(=O)O` [urotensin-II], the pKi_value (receptor UTS2R (ur2r_human, Q9UKP6)) was 8.6.
With `NC(=O)CC[C@@H]1NC(=O)[C@H](Cc2ccccc2)NC(=O)[C@H](Cc2ccc(O)cc2)NC(=O)[C@@H](N)CSSC[C@@H](C(=O)N2CCC[C@H]2C(=O)N[C@@H](CCCN=C(N)N)C(=O)NCC(N)=O)NC(=O)[C@H](CC(N)=O)NC1=O` [vasopressin], the pKi_value is, setting by setting: under setting [5], 9.3; under setting [6], 9.5; under setting [7], 9.1; under setting [8], 9.3.
`O=C(O)CCC(=O)C(=O)O` [α-ketoglutaric acid]: the pEC50_value (receptor oxgr1_human (OXGR1), Oxoglutarate receptors) was 4.5.
As for `C[C@@H](O)CC(=O)O` [β-D-hydroxybutyric acid], the pEC50_value (receptor hcar2_human (HCAR2), Hydroxycarboxylic acid receptors) is recorded as 3.1.
As to `NCCC(=O)O` [β-alanine], the pEC50_value (receptor mrgrd_human (MRGPRD), Class A orphans) was 4.8.
For the compound `NCCc1ccccc1` [β-phenylethylamine], the pEC50_value under setting [4] was 7.
As for (-)-adrenaline, the pKi_value runs as follows: (receptor ada1a_human (ADRA1A, P35348)) 6.5; (receptor ada1b_human (ADRA1B, P35368)) 6.5; (receptor ada1d_human (ADRA1D, P25100)) 7.2; (receptor ada2a_human (ADRA2A, P08913)) 7.4; (receptor ada2b_human (ADRA2B, P18089)) 5.2; (receptor ada2c_human (ADRA2C, P18825)) 5.8. The pKi_value by setting is: (receptor adrb1_human (ADRB1, P08588)) 6; (receptor adrb2_human (ADRB2, P07550)) 6.2; (receptor adrb3_human (ADRB3, P13945)) 3.9.
For the compound “Big endothelin-1 (CSCSSLMDKECVYFCHLDIIWVNTPEHVVPYGLGSPRS; not fully specified; ends and bridges not checked; UniProt P05305 53-90, looked up)”, the pIC50_value (receptor ednra_human (EDNRA, P25101)) is reported as 8.5.
As to CCK-4, the pIC50_value under setting [13] is listed as 7.5.
Regarding CCK-8, the pIC50_value under setting [13] was 10.
